One experiment concerns C albicans. The experiment is described as follows: Clearance of C. albicans in mice treated with NO synthase inhibitor. It is filed as in vivo. To be noted: ip daily for 3 days after infection; two mouse strains (H2d); FIG. 9. How it is done: To identify the immune parameters of protection, the levels of IFN-γ were determined at various times following infection with C. albicans. […] Since nitric oxide production is associated with host defence in parasitic infection, quantitation of NO was performed following infection in two mouse strains sharing the same H2d MHC haplotype. In this experiment mice were infected with C albicans and then followed by ip injection with an inhibitor of NO synthase, by injecting NG-monomethyl-L-arginine monoacetate (MNLA) daily for 3 days after which time the clearance rate of yeasts was determined.

The next experiment has as its system Helicobacter pylori. The experiment in a line: Metronidazole therapy of H. pylori infection in mice pre-treated with probiotic. It is filed as in vivo. To be noted: for % eradication: compared with saline-treated control group. How it is done: H. pylori infected mice (5 per group) were treated with Lactobacillus acidophilus (1×10^9 per animal) by oral feeding 3 times a week for 2 weeks prior to treatment with Metronidazole (0.08 mg/animal) for 1 week.

Experiment [1] relates to Non-typeable Haemophilus influenzae (NTHi). The experiment is described as follows: Clearance of NTHi from lungs of rats given a single intraduodenal dose of L. fermentum. It is filed as in vivo, dark agouti (DA) rats. How it is done:
Groups of 6 male, specific pathogen free, dark agouti (DA) rats were given a single dose of PBS or live L. fermentum (2.5×10^10) directly into the duodenal lumen after exposure of the intestine by laparotomy. Twenty-one days later the rats were infected intratracheally with 5×10^8 live Non-typeable Haemophilus influenzae (NTHi). Four hours later the rats were killed by pentobarbitone overdose. The lungs were lavaged with 10 mL PBS to obtain broncho-alveolar lavage fluid (BAL). The lavaged lungs were then homogenised in 10 mL of PBS. Twenty microlitres of ten-fold serial dilutions of BAL and lung homogenate (LH) were plated on chocolate agar plates and incubated in a 10% CO2 incubator at 37° C. overnight. Colonies were counted and the number of live bacteria in the BAL and LH preparations determined. The recovery of live NTHi bacteria, presented as colony forming units (CFU), was as follows: […]

The test system of the next experiment is S typhimurium. The experiment is described as follows: Translocation of S typhimurium to spleen in mice fed L fermentum and vaccinated with killed oral Salmonella vaccine. It is filed as in vivo, BALB/c mice. To be noted: for S typhimurium in spleen (±SEM): live oral challenge. The procedure: BALB/c female mice (6-8 weeks old) were fed 10^8 L fermentum VRI012 (obtained from University of New South Wales, School of Microbiology and Immunology Culture Collection, Sydney, Australia) before or co-administered with 10^8 killed S typhimurium vaccine four times over a 2 week period. Two weeks after oral administration, the mice were challenged with live S typhimurium administered by the oral route. After sacrifice, the level of colonisation with S typhimurium in the spleen was determined.

Marks after values point to notes of the source that are not given here.

For `CC(=O)O.CNC(=N)NCCC[C@H](N)C(=O)O` [MNLA, NG-monomethyl-L-arginine monoacetate], the “clearance of yeasts compared with untreated mice” value with C albicans is given as “delayed clearance of yeasts”.

Consider `Cc1ncc([N+](=O)[O-])n1CCO` [Metronidazole, reference compound], for which, in the experiment on Helicobacter pylori (L acidophilus 1×10^9 orally 3 times a week for 2 weeks, Metronidazole 0.08 mg/animal for 1 week), the H. pylori colonisation is 11.4 ± 2.5 ×10^5 CFU/animal. For the same molecule, the “% eradication” value with Helicobacter pylori is 55^b %; in the experiment on Helicobacter pylori (listed as metronidazole) it was 55%.

As for Lactobacillus fermentum [L. fermentum], in experiment [1] (lung homogenate, CFU, single dose 2.5×10^10 into duodenal lumen, challenge day 21, 4 hours), the “LH, live NTHi recovered” value was 0.82 ± 0.37 p = 0.017* 10^6. In addition, the “BAL CFU, live NTHi recovered” value in experiment [1] (single dose 2.5×10^10 into duodenal lumen, challenge day 21, 4 hours) is 0.49 ± 0.19 CFU (10^6). The “clearance of acute NTHi respiratory infection” value in experiment [1] (single dose delivered to the gut) is “enhanced clearance”. The “S typhimurium in spleen (±SEM)” value is 4.5 ± 0.22 p < 0.05 vs Control Log CFU/g wet wt in the experiment with S typhimurium (10^8 co-administered with 10^8 killed S typhimurium vaccine) and 3.8 ± 0.12 p < 0.05 vs Control Log CFU/g wet wt in the experiment with S typhimurium (10^8 fed before 10^8 killed S typhimurium vaccine). Also, the “level of translocation compared with mice fed PBS” value in the experiment with S typhimurium (fed prior to immunisation or co-administered with killed S typhimurium) is “low levels of translocation”.

For the origin of these results see patent US20030180260A1, “Immunotherapy or treating bacterial or viral infection at mucosal surfaces with probiotics, and compositions therefor” (priority 2000, published 2003).
